Assay results taken from PubChem BioAssay (NCI).
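Cells were grown in 96-well plates and exposed to each compound for 48 hours at five concentrations; endpoints were interpolated linearly between bracketing concentrations, or set to the highest concentration if not reached. The concentration for full growth arrest is given as TGI.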

Key:
Assay in all cases: NCI-60 cell line screen, 48 h
786-0 renal = tested on: 786-0 renal
BT-549 breast = tested on: BT-549 breast
COLO 205 colon = tested on: COLO 205 colon
HCC-2998 colon = tested on: HCC-2998 colon
HCT-15 colon = tested on: HCT-15 colon
MOLT-4 leukemia = tested on: MOLT-4 leukemia
NCI-H226 lung = tested on: NCI-H226 lung
NCI-H460 lung = tested on: NCI-H460 lung
NCI/ADR-RES ovarian = tested on: NCI/ADR-RES ovarian
OVCAR-4 ovarian = tested on: OVCAR-4 ovarian
OVCAR-8 ovarian = tested on: OVCAR-8 ovarian
SF-268 CNS = tested on: SF-268 CNS
SK-MEL-2 melanoma = tested on: SK-MEL-2 melanoma
UACC-62 melanoma = tested on: UACC-62 melanoma

Compound | TGI (786-0 renal) [µM] | TGI (BT-549 breast) [µM] | TGI (COLO 205 colon) [µM] | TGI (HCC-2998 colon) [µM] | TGI (HCT-15 colon) [µM] | TGI (MOLT-4 leukemia) [µM] | TGI (NCI-H226 lung) [µM] | TGI (NCI-H460 lung) [µM] | TGI (NCI/ADR-RES ovarian) [µM] | TGI (OVCAR-4 ovarian) [µM] | TGI (OVCAR-8 ovarian) [µM] | TGI (SF-268 CNS) [µM] | TGI (SK-MEL-2 melanoma) [µM] | TGI (UACC-62 melanoma) [µM]
Cc1cc(-c2nc3cc(O)ccc3s2)ccc1N | > 100 | > 100 | 49.8 | > 100 | > 100 | > 100 | > 100 | > 100 | > 100 | > 100 | > 100 | > 100 | 74.4 | 44.2
O=[N+]([O-])c1ccc(NC(=S)Nc2ccccn2)cc1 | > 59 | > 100 | > 94.5 | > 100 | > 100 | > 100 | > 64.2 | > 100 | > 100 | > 100 | > 100 | > 91.7 | > 100 | > 100
CCN1C[C@]2(C)CC[C@H](OCc3ccccc3)C34C5C[C@@H]6CC[C@](O)(C(C[C@@H]32)C14)C5[C@H]6OCc1ccccc1 (stereo not given in full) | > 100 | > 100 | > 100 | > 100 | > 100 | > 100 | > 100 | > 100 | > 100 | > 100 | > 100 | > 100 | > 100 | > 100
COc1cc(C2c3cc4c(cc3OC(NCc3ccccc3)C2C)OCO4)cc(OC)c1OC (stereo not given) | 44.1 | 16.4 | 0.726 | 4 | > 44.4 | 31.8 | 7.33 | > 34.7 | 0.723 | > 100 | > 100 | > 36.8 | > 66.6 | 14.1
COC(=O)/C=C(/C(=O)OC)c1c(C)cc2c(C)cc(C)cc(C)c1-2 | 41.1 | 47.1 | 22.4 | > 100 | 18.8 | > 100 | 61.6 | > 69.9 | > 64.6 | > 100 | > 86.6 | > 65.7 | > 77.1 | > 66.5
O=Cc1ccc(-c2cccc([N+](=O)[O-])c2)s1 | > 100 | > 100 | > 100 | > 100 | > 100 | > 100 | > 100 | > 100 | > 100 | > 100 | > 100 | > 100 | > 100 | > 100
COc1cc(-c2oc(C=Nc3ccccc3)c([N+](=O)[O-])c2-c2ccc(O)c(OC)c2)ccc1O | > 58.3 | > 100 | > 63.2 | 30.5 | 42.3 | > 84.7 | > 100 | 35.5 | > 68.1 | 67.8 | > 54.9 | 73.7 | > 100 | 47.2
Cc1cc(N)ccc1C=O | > 100 | > 100 | > 100 | > 100 | > 100 | > 100 | > 100 | > 100 | > 100 | > 100 | > 100 | > 100 | > 100 | > 100
CN(C)/C=C/c1ccncc1 | > 100 | > 100 | > 100 | > 100 | > 100 | > 100 | > 100 | > 100 | > 100 | > 100 | > 100 | > 100 | > 100 | > 100
CSC(=S)OC1C(CO[Si](C)(C)C(C)(C)C)OC2OC(C)(C)OC21 (stereo not given) | 42 | 67 | 36.1 | 49 | 35.3 | 30.5 | 29.7 | 32.8 | 36.2 | > 100 | 95.8 | 45.9 | 28.5 | 36.1
